{
  "source": "PubChem BioAssay AID1963441",
  "about": "(Molecular Pharmacology Branch, DTP, NCI, 2024)",
  "tested_on": "NCI-H1876 complex spheroid growth, % test/control",
  "experiment": "Anticancer human tumor NCI-H1876 cell line growth inhibition [Asc];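 further: compound exposure lasted 7 days starting three days after seeding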;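 on viability, T/C: 100% = DMSO vehicle control wells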",
  "conditions": "for IC50: curve of first compound; for viability, T/C: stronger effect = lower value",
  "summary_of_the_method": "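Complex solid-tumor spheroids incorporating human endothelial and mesenchymal stem cells received single agents or combinations over half-log dilution ranges anchored to clinical Cmax.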",
  "key": {"[1]": {"conditions": "second compound 0.0316 µM, first compound 0.0316 µM"}, "[2]": {"conditions": "second compound 0.0316 µM, first compound 0.1 µM"}, "[3]": {"conditions": "second compound 0.1 µM, first compound 0.0316 µM"}, "[4]": {"conditions": "second compound 0.1 µM, first compound 0.1 µM"}, "[5]": {"conditions": "second compound 0.316 µM, first compound 0.0316 µM"}, "[6]": {"conditions": "second compound 0.316 µM, first compound 0.1 µM"}, "[7]": {"conditions": "second compound 1 µM, first compound 0.0316 µM"}, "[8]": {"conditions": "second compound 1 µM, first compound 0.1 µM"}, "[9]": {"conditions": "second compound 3.16 µM, first compound 0.0316 µM"}, "[10]": {"conditions": "second compound 3.16 µM, first compound 0.1 µM"}, "[11]": {"conditions": "second compound 10 µM, first compound 0.0316 µM"}, "[12]": {"conditions": "second compound 10 µM, first compound 0.1 µM"}},
  "data": [
    {"smiles": "O=C(c1cc(Cc2n[nH]c(=O)c3ccccc23)ccc1F)N1CCN(C(=O)C2CC2)CC1", "note": "+ Cc1c(S(C)(=O)=O)c(-c2cc(F)cc(N3CCN(c4ccc(NS(=O)(=O)c5ccc(NC(CCN6CCC(C(=O)OCCCP(=O)(O)O)CC6)CSc6ccccc6)c(S(=O)(=O)C(F)(F)F)c5)cc4)CC3)c2)c(-c2ccc(Cl)cc2)n1C(C)C", "values": [
      {"measurement": "IC50", "setting": "second compound 0.0316 µM", "result": "> 10", "unit": "µM"},
      {"measurement": "IC50", "setting": "second compound 0.1 µM", "result": "> 10", "unit": "µM"},
      {"measurement": "IC50", "setting": "second compound 0.316 µM", "result": "> 10", "unit": "µM"},
      {"measurement": "IC50", "setting": "second compound 1 µM", "result": 9.96, "unit": "µM"},
      {"measurement": "IC50", "setting": "second compound 3.16 µM", "result": 8.47, "unit": "µM"},
      {"measurement": "IC50", "setting": "second compound 10 µM", "result": 7.79, "unit": "µM"},
      {"measurement": "viability, T/C", "setting": "[1]", "result": 99.6, "unit": "%"},
      {"measurement": "viability, T/C", "setting": "[2]", "result": 99.1, "unit": "%"},
      {"measurement": "viability, T/C", "setting": "second compound 0.0316 µM, first compound 0.316 µM", "result": 92.8, "unit": "%"},
      {"measurement": "viability, T/C", "setting": "second compound 0.0316 µM, first compound 1 µM", "result": 101, "unit": "%"},
      {"measurement": "viability, T/C", "setting": "second compound 0.0316 µM, first compound 3.16 µM", "result": 97.2, "unit": "%"},
      {"measurement": "viability, T/C", "setting": "second compound 0.0316 µM, first compound 10 µM", "result": 74, "unit": "%"},
      {"measurement": "viability, T/C", "setting": "[3]", "result": 100, "unit": "%"},
      {"measurement": "viability, T/C", "setting": "[4]", "result": 90.9, "unit": "%"},
      {"measurement": "viability, T/C", "setting": "second compound 0.1 µM, first compound 0.316 µM", "result": 98.2, "unit": "%"},
      {"measurement": "viability, T/C", "setting": "second compound 0.1 µM, first compound 1 µM", "result": 96.2, "unit": "%"},
      {"measurement": "viability, T/C", "setting": "second compound 0.1 µM, first compound 3.16 µM", "result": 95.9, "unit": "%"},
      {"measurement": "viability, T/C", "setting": "second compound 0.1 µM, first compound 10 µM", "result": 73.6, "unit": "%"},
      {"measurement": "viability, T/C", "setting": "[5]", "result": 90.2, "unit": "%"},
      {"measurement": "viability, T/C", "setting": "[6]", "result": 96.7, "unit": "%"},
      {"measurement": "viability, T/C", "setting": "second compound 0.316 µM, first compound 0.316 µM", "result": 93.5, "unit": "%"},
      {"measurement": "viability, T/C", "setting": "second compound 0.316 µM, first compound 1 µM", "result": 97.9, "unit": "%"},
      {"measurement": "viability, T/C", "setting": "second compound 0.316 µM, first compound 3.16 µM", "result": 96, "unit": "%"},
      {"measurement": "viability, T/C", "setting": "second compound 0.316 µM, first compound 10 µM", "result": 61.2, "unit": "%"},
      {"measurement": "viability, T/C", "setting": "[7]", "result": 111, "unit": "%"},
      {"measurement": "viability, T/C", "setting": "[8]", "result": 97.7, "unit": "%"},
      {"measurement": "viability, T/C", "setting": "second compound 1 µM, first compound 0.316 µM", "result": 90.1, "unit": "%"},
      {"measurement": "viability, T/C", "setting": "second compound 1 µM, first compound 1 µM", "result": 102, "unit": "%"},
      {"measurement": "viability, T/C", "setting": "second compound 1 µM, first compound 3.16 µM", "result": 99.2, "unit": "%"},
      {"measurement": "viability, T/C", "setting": "second compound 1 µM, first compound 10 µM", "result": 49.8, "unit": "%"},
      {"measurement": "viability, T/C", "setting": "[9]", "result": 101, "unit": "%"},
      {"measurement": "viability, T/C", "setting": "[10]", "result": 94.5, "unit": "%"},
      {"measurement": "viability, T/C", "setting": "second compound 3.16 µM, first compound 0.316 µM", "result": 97.1, "unit": "%"},
      {"measurement": "viability, T/C", "setting": "second compound 3.16 µM, first compound 1 µM", "result": 96, "unit": "%"},
      {"measurement": "viability, T/C", "setting": "second compound 3.16 µM, first compound 3.16 µM", "result": 86.8, "unit": "%"},
      {"measurement": "viability, T/C", "setting": "second compound 3.16 µM, first compound 10 µM", "result": 43.6, "unit": "%"},
      {"measurement": "viability, T/C", "setting": "[11]", "result": 95.2, "unit": "%"},
      {"measurement": "viability, T/C", "setting": "[12]", "result": 98.9, "unit": "%"},
      {"measurement": "viability, T/C", "setting": "second compound 10 µM, first compound 0.316 µM", "result": 86.1, "unit": "%"},
      {"measurement": "viability, T/C", "setting": "second compound 10 µM, first compound 1 µM", "result": 90.1, "unit": "%"},
      {"measurement": "viability, T/C", "setting": "second compound 10 µM, first compound 3.16 µM", "result": 95.3, "unit": "%"},
      {"measurement": "viability, T/C", "setting": "second compound 10 µM, first compound 10 µM", "result": 38.1, "unit": "%"}
    ]},
    {"smiles": "Cn1ncnc1[C@H]1c2n[nH]c(=O)c3cc(F)cc(c23)N[C@@H]1c1ccc(F)cc1", "note": "+ Cc1c(S(C)(=O)=O)c(-c2cc(F)cc(N3CCN(c4ccc(NS(=O)(=O)c5ccc(NC(CCN6CCC(C(=O)OCCCP(=O)(O)O)CC6)CSc6ccccc6)c(S(=O)(=O)C(F)(F)F)c5)cc4)CC3)c2)c(-c2ccc(Cl)cc2)n1C(C)C", "values": [
      {"measurement": "IC50", "setting": "second compound 0.0316 µM", "result": "> 0.1", "unit": "µM"},
      {"measurement": "IC50", "setting": "second compound 0.1 µM", "result": "> 0.1", "unit": "µM"},
      {"measurement": "IC50", "setting": "second compound 0.316 µM", "result": "> 0.1", "unit": "µM"},
      {"measurement": "IC50", "setting": "second compound 1 µM", "result": "> 0.1", "unit": "µM"},
      {"measurement": "IC50", "setting": "second compound 3.16 µM", "result": "> 0.1", "unit": "µM"},
      {"measurement": "IC50", "setting": "second compound 10 µM", "result": "> 0.1", "unit": "µM"},
      {"measurement": "viability, T/C", "setting": "second compound 0.0316 µM, first compound 0.000316 µM", "result": 89.8, "unit": "%"},
      {"measurement": "viability, T/C", "setting": "second compound 0.0316 µM, first compound 0.001 µM", "result": 82.8, "unit": "%"},
      {"measurement": "viability, T/C", "setting": "second compound 0.0316 µM, first compound 0.00316 µM", "result": 101, "unit": "%"},
      {"measurement": "viability, T/C", "setting": "second compound 0.0316 µM, first compound 0.01 µM", "result": 94.2, "unit": "%"},
      {"measurement": "viability, T/C", "setting": "[1]", "result": 106, "unit": "%"},
      {"measurement": "viability, T/C", "setting": "[2]", "result": 81.6, "unit": "%"},
      {"measurement": "viability, T/C", "setting": "second compound 0.1 µM, first compound 0.000316 µM", "result": 100, "unit": "%"},
      {"measurement": "viability, T/C", "setting": "second compound 0.1 µM, first compound 0.001 µM", "result": 92.9, "unit": "%"},
      {"measurement": "viability, T/C", "setting": "second compound 0.1 µM, first compound 0.00316 µM", "result": 98.4, "unit": "%"},
      {"measurement": "viability, T/C", "setting": "second compound 0.1 µM, first compound 0.01 µM", "result": 111, "unit": "%"},
      {"measurement": "viability, T/C", "setting": "[3]", "result": 96.7, "unit": "%"},
      {"measurement": "viability, T/C", "setting": "[4]", "result": 86.5, "unit": "%"},
      {"measurement": "viability, T/C", "setting": "second compound 0.316 µM, first compound 0.000316 µM", "result": 92, "unit": "%"},
      {"measurement": "viability, T/C", "setting": "second compound 0.316 µM, first compound 0.001 µM", "result": 101, "unit": "%"},
      {"measurement": "viability, T/C", "setting": "second compound 0.316 µM, first compound 0.00316 µM", "result": 95.5, "unit": "%"},
      {"measurement": "viability, T/C", "setting": "second compound 0.316 µM, first compound 0.01 µM", "result": 110, "unit": "%"},
      {"measurement": "viability, T/C", "setting": "[5]", "result": 94.7, "unit": "%"},
      {"measurement": "viability, T/C", "setting": "[6]", "result": 74.3, "unit": "%"},
      {"measurement": "viability, T/C", "setting": "second compound 1 µM, first compound 0.000316 µM", "result": 110, "unit": "%"},
      {"measurement": "viability, T/C", "setting": "second compound 1 µM, first compound 0.001 µM", "result": 89.8, "unit": "%"},
      {"measurement": "viability, T/C", "setting": "second compound 1 µM, first compound 0.00316 µM", "result": 94.7, "unit": "%"},
      {"measurement": "viability, T/C", "setting": "second compound 1 µM, first compound 0.01 µM", "result": 94.7, "unit": "%"},
      {"measurement": "viability, T/C", "setting": "[7]", "result": 91.7, "unit": "%"},
      {"measurement": "viability, T/C", "setting": "[8]", "result": 64, "unit": "%"},
      {"measurement": "viability, T/C", "setting": "second compound 3.16 µM, first compound 0.000316 µM", "result": 94.2, "unit": "%"},
      {"measurement": "viability, T/C", "setting": "second compound 3.16 µM, first compound 0.001 µM", "result": 95.7, "unit": "%"},
      {"measurement": "viability, T/C", "setting": "second compound 3.16 µM, first compound 0.00316 µM", "result": 94.1, "unit": "%"},
      {"measurement": "viability, T/C", "setting": "second compound 3.16 µM, first compound 0.01 µM", "result": 92.6, "unit": "%"},
      {"measurement": "viability, T/C", "setting": "[9]", "result": 81, "unit": "%"},
      {"measurement": "viability, T/C", "setting": "[10]", "result": 53.7, "unit": "%"},
      {"measurement": "viability, T/C", "setting": "second compound 10 µM, first compound 0.000316 µM", "result": 100, "unit": "%"},
      {"measurement": "viability, T/C", "setting": "second compound 10 µM, first compound 0.001 µM", "result": 106, "unit": "%"},
      {"measurement": "viability, T/C", "setting": "second compound 10 µM, first compound 0.00316 µM", "result": 84.2, "unit": "%"},
      {"measurement": "viability, T/C", "setting": "second compound 10 µM, first compound 0.01 µM", "result": 95.9, "unit": "%"},
      {"measurement": "viability, T/C", "setting": "[11]", "result": 80.4, "unit": "%"},
      {"measurement": "viability, T/C", "setting": "[12]", "result": 55.8, "unit": "%"}
    ]}
  ]
}
